Read-outs that look alike come from different tables or passages of the source.
Key:
[1] = system: pigweed (Amaranthus retroflexus); test: Test A preemergence, pigweed; format: in vivo; settings: Amaranthus retroflexus, pre-emergence, 240 h; for pest or weed control at 125 g/ha: 125 g ai/ha; for pest or weed control at 500 g/ha: 500 g ai/ha
Outline: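 After sowing into a sand-amended loam, pots for the preemergence test were treated by spraying directly onto soil. In parallel, seedlings at the one- to two-leaf stage and 2 to 10 cm tall were treated postemergence with the identical surfactant-containing formulation.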

[2] = visual injury, 0 to 100 scale (0 no effect, 100 complete control), approx. 10 days, read-out: Plant response rating, Pigweed
[3] = visual injury on 0 to 100 scale (0 no effect, 100 complete control), approximately 10 days, read-out: Pigweed plant response rating
[4] = 0 to 100 scale (0 no effect, 100 complete control), read-out: Plant response rating, Pigweed

SMILES: Cc1c(NS(=O)(=O)C(F)(F)F)cc(C(=O)N2CCOCC2)c(C)c1C [Compound 289, 1,1,1-Trifluoro-N-[2,3,4-trimethyl-5-(4-morpholinylcarbonyl)phenyl]methanesulfonamide]
- melting point: 247 to 250 °C

SMILES: Cc1cc(C)c(C(=O)N2CCC(F)(F)CC2)cc1NS(=O)(=O)C(F)(F)F [Compound 241, N-[5-[(4,4-Difluoro-1-piperidinyl)carbonyl]-2,4-dimethylphenyl]-1,1,1-trifluoromethanesulfonamide]
- pest or weed control at 125 g/ha [1, 2]: 100%
- pest or weed control at 500 g/ha [1, 3]: 100%

SMILES: Cc1cc(C)c(N(COC(=O)C(C)(C)C)S(=O)(=O)C(F)(F)F)cc1C1=NOC2(CCCC2)C1 [Compound 140, [[2,4-Dimethyl-5-(1-oxa-2-azaspiro[4.4]non-2-en-3-yl)phenyl][(trifluoromethyl)sulfonyl]amino]methyl 2,2-dimethylpropanoate]
- pest or weed control at 125 g/ha [1, 3]: 0%
- pest or weed control at 500 g/ha [1, 4]: 50%

SMILES: Cc1cc(Cl)c(NS(=O)(=O)C(F)(F)F)cc1C(=O)N1CCC(F)(F)CC1 [Compound 229, N-[2-Chloro-5-[(4,4-difluoro-1-piperidinyl)carbonyl]-4-methylphenyl]-1,1,1-trifluoromethanesulfonamide]
- pest or weed control at 125 g/ha [1, 2]: 100%
- pest or weed control at 500 g/ha [1, 3]: 100%

SMILES: Cc1cc(C)c(C2=NOC3(CCCC3)C2)cc1NS(=O)(=O)C(F)(F)F [Compound 207, N-[2,4-Dimethyl-5-(1-oxa-2-azaspiro[4.4]non-2-en-3-yl)phenyl]-1,1,1-trifluoromethanesulfonamide]
- pest or weed control at 125 g/ha [1, 2]: 100%
- pest or weed control at 500 g/ha [1, 4]: 100%

SMILES: Cc1c(NS(=O)(=O)C(F)(F)F)cc(C(=O)N2CCOCC2)c(C)c1F [Compound 190, 1,1,1-Trifluoro-N-[3-fluoro-2,4-dimethyl-5-(4-morpholinylcarbonyl)phenyl]methanesulfonamide]
- pest or weed control at 125 g/ha [1, 2]: 100%
- pest or weed control at 500 g/ha [1, 4]: 100%
- melting point: 236 to 240 °C

SMILES: Cc1cc(C)c(C2=NO[C@@H]3CCC[C@H]23)cc1NS(=O)(=O)C(F)(F)F [Compound 103, N-[2,4-Dimethyl-5-[(3aR,6aR)-3a,5,6,6a-tetrahydro-4H-cyclopent[d]isoxazol-3-yl]phenyl]-1,1,1-trifluoromethanesulfonamide]
- pest or weed control at 125 g/ha [1, 3]: 100%
- pest or weed control at 500 g/ha [1, 4]: 100%

SMILES: Cc1c(NS(=O)(=O)C(F)(F)F)cc(C(=O)N(C)C)c(C)c1F [Compound 128, 3-Fluoro-N,N,2,4-tetramethyl-5-[[(trifluoromethyl)sulfonyl]amino]benzamide]
- pest or weed control at 125 g/ha [1, 3]: 100%
- pest or weed control at 500 g/ha [1, 4]: 100%
- melting point: 243 to 245 °C

SMILES: Cc1cc(Cl)c(NS(=O)(=O)C(F)(F)F)cc1C(=O)N1CCOCC1 [Compound 16, N-[2-Chloro-4-methyl-5-(4-morpholinylcarbonyl)phenyl]-1,1,1-trifluoromethanesulfonamide]
- pest or weed control at 125 g/ha [1, 3]: 100%
- pest or weed control at 500 g/ha [1, 4]: 100%

SMILES: Cc1cc(Cl)c(NS(=O)(=O)C(F)(F)F)cc1C(=O)N1CCCCC1 [Compound 18, N-[2-Chloro-4-methyl-5-(1-piperidinylcarbonyl)phenyl]-1,1,1-trifluoromethanesulfonamide]
- pest or weed control at 125 g/ha [1, 3]: 100%
- pest or weed control at 500 g/ha [1, 4]: 100%

SMILES: Cc1cc(C)c(N(COC(=O)C(C)(C)C)S(=O)(=O)C(F)(F)F)cc1C1=NO[C@@H]2CCC[C@H]12 [Compound 100, [[2,4-Dimethyl-5-[(3aR,6aR)-3a,5,6,6a-tetrahydro-4H-cyclopent[d]isoxazol-3-yl]phenyl][(trifluoromethyl)sulfonyl]amino]methyl 2,2-dimethylpropanoate]
- pest or weed control at 125 g/ha [1, 3]: 70%
- pest or weed control at 500 g/ha [1, 4]: 80%

SMILES: Cc1cc(C)c(C2=NOC3COCCC23)cc1NS(=O)(=O)C(F)(F)F (centres unmarked) [Compound 121, N-[2,4-Dimethyl-5-(3a,4,7,7a-tetrahydro-5H-pyrano[4,3-d]isoxazol-3-yl)phenyl]-1,1,1-trifluoromethanesulfonamide]
- melting point: 117 to 120 °C

SMILES: Cc1cc(C)c(C2=NOC3(CCCCC3)C2)cc1NS(=O)(=O)C(F)(F)F [Compound 197, N-[2,4-Dimethyl-5-(1-oxa-2-azaspiro[4.5]dec-2-en-3-yl)phenyl]-1,1,1-trifluoromethanesulfonamide]
- pest or weed control at 125 g/ha [1, 2]: 80%
- pest or weed control at 500 g/ha [1, 4]: 100%

Source: patent US20230278972A1, “SUBSTITUTED HALOALKYL SULFONANILIDE HERBICIDES” (FMC Corporation, priority 2020, published 2023)
